Measurements as given in article PMC9030254, “Target Hopping from Protein Kinases to PXR: Identification of Small-Molecule Protein Kinase Inhibitors as Selective Modulators of Pregnane X Receptor from TüKIC Library” (Cells, 2022).

Legend:
Experiment in all cases: Kinase profiling
Assay type in all cases: biochemical
ERK5 = molecular target: T1, ERK5 (Homo sapiens, UniProt Q13164)
T1 construct: purchased ProQinase (Freiburg, Germany)
Protocol: (§1) The analysis was performed by ProQinase (Freiburg, Germany).

TSSK1 = molecular target: T2, TSSK1 (Homo sapiens, UniProt Q9BXA7)
T2 construct: purchased ProQinase (Freiburg, Germany)
T2 sequence (Q9BXA7 1-367): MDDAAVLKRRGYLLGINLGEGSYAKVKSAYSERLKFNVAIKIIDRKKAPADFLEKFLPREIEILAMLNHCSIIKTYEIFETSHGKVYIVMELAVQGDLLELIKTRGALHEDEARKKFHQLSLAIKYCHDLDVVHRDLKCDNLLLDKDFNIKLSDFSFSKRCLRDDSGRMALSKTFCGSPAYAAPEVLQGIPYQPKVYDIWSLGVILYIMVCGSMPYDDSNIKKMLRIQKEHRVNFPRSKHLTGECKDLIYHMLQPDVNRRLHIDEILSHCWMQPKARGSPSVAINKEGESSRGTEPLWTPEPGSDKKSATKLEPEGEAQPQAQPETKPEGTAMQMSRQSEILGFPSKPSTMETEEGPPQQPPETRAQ
Protocol: as §1

CDC7/DBF4 = molecular target: T3, CDC7/DBF4 (Homo sapiens, UniProt O00311)
T3 construct: purchased ProQinase (Freiburg, Germany)
T3 sequence (O00311 whole entry): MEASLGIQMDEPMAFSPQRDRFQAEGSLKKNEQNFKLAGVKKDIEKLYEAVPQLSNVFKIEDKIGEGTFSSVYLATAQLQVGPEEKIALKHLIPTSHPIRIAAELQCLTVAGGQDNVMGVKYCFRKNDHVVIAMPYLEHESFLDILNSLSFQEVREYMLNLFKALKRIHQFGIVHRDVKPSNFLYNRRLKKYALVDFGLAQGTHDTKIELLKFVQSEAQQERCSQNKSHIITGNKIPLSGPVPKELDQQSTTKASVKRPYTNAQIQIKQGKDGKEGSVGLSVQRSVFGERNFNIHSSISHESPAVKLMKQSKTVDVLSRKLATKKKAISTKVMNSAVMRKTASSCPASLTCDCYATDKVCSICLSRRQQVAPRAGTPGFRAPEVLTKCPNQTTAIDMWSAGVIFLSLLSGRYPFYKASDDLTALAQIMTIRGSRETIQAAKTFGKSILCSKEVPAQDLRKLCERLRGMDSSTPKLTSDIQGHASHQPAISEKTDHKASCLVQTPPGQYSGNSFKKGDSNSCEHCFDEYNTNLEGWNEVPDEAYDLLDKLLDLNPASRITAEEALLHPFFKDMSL
T3 sequence (Q9UBU7 whole entry partner): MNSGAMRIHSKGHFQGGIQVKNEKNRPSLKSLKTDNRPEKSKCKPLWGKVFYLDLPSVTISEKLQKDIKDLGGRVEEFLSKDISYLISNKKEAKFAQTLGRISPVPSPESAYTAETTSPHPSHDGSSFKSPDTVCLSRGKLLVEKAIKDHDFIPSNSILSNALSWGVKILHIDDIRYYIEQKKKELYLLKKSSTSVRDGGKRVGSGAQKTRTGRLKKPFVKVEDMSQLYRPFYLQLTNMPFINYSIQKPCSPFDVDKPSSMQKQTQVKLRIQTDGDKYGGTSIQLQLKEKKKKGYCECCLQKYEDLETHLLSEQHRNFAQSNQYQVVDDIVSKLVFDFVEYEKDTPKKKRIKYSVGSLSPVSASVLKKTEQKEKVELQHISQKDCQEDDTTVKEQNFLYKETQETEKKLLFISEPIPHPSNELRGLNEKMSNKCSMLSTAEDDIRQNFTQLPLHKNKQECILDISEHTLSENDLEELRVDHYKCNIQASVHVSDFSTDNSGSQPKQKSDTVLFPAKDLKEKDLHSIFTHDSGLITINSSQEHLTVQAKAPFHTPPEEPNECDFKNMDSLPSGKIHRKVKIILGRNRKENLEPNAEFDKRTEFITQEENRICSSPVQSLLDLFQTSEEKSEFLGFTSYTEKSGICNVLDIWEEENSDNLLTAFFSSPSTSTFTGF
Protocol: as §1

TGFBR1 = molecular target: T4, TGFBR1 (Homo sapiens, UniProt P36897)
T4 construct: purchased ProQinase (Freiburg, Germany)
T4 sequence (P36897 34-503): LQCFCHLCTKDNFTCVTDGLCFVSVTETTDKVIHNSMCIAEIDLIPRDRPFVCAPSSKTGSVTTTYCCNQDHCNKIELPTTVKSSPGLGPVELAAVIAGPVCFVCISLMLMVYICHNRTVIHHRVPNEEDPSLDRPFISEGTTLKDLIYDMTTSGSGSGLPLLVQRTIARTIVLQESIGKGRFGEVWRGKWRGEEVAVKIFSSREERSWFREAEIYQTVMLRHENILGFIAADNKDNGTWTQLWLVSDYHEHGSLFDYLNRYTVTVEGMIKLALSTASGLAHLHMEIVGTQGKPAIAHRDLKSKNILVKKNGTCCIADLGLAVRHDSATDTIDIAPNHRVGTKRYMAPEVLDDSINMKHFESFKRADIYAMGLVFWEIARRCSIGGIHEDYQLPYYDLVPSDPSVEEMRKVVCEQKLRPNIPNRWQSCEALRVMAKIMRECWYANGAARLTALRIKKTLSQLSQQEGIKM
Protocol: as §1

FAK = molecular target: T5, FAK (Homo sapiens, UniProt Q05397)
T5 construct: purchased ProQinase (Freiburg, Germany)
T5 sequence (Q05397 whole entry): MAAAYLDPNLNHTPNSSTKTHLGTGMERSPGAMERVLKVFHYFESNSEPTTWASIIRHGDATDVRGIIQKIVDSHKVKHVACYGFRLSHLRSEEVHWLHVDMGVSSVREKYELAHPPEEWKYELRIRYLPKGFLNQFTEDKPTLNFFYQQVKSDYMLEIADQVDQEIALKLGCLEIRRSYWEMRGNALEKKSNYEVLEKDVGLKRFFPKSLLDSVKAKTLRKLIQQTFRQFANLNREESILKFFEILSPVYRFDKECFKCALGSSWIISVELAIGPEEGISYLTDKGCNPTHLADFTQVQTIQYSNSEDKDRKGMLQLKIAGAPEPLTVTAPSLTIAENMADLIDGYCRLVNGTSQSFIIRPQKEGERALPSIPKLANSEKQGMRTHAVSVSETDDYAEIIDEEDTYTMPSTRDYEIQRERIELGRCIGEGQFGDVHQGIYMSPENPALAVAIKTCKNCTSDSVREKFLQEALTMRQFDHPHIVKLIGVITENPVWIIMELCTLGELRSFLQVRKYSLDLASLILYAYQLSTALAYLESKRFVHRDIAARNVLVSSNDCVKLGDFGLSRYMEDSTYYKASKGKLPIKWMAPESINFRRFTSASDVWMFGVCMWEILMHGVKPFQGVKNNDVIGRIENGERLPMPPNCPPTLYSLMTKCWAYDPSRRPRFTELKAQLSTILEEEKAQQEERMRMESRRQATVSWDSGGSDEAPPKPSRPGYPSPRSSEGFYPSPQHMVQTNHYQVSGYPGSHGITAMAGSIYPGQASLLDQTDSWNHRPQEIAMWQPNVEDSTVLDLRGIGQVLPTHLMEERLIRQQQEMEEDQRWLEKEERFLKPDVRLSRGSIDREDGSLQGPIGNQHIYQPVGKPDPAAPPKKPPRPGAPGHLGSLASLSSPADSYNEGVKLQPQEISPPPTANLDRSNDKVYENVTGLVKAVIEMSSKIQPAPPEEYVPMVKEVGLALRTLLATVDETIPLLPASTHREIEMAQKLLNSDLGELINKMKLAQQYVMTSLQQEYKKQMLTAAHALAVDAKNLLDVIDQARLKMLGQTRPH
Protocol: as §1

DCAMKL2 = molecular target: T6, DCAMKL2 (Homo sapiens, UniProt Q8N568)
T6 construct: purchased ProQinase (Freiburg, Germany)
T6 sequence (Q8N568 1-766): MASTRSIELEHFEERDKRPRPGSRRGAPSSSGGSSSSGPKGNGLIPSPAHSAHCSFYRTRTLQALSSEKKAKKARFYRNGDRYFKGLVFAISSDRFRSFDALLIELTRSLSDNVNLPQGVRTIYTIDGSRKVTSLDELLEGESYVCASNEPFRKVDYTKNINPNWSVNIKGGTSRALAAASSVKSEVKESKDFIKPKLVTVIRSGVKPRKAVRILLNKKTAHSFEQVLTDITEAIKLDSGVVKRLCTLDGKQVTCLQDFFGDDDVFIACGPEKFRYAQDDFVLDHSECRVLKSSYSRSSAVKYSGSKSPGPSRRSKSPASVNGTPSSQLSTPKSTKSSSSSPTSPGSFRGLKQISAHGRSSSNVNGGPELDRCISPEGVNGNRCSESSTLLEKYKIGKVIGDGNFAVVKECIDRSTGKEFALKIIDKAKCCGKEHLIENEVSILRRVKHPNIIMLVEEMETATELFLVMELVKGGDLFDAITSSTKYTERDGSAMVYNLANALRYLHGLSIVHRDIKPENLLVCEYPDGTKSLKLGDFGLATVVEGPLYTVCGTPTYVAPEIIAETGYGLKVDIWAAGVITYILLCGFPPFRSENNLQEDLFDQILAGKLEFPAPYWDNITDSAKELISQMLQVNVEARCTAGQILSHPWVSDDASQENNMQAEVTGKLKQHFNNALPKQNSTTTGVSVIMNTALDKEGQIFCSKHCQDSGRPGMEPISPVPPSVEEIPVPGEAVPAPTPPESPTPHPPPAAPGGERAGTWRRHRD
Protocol: as §1

NEK6 = molecular target: T7, NEK6 (Homo sapiens, UniProt Q9HC98)
T7 construct: purchased ProQinase (Freiburg, Germany)
T7 sequence (Q9HC98 whole entry): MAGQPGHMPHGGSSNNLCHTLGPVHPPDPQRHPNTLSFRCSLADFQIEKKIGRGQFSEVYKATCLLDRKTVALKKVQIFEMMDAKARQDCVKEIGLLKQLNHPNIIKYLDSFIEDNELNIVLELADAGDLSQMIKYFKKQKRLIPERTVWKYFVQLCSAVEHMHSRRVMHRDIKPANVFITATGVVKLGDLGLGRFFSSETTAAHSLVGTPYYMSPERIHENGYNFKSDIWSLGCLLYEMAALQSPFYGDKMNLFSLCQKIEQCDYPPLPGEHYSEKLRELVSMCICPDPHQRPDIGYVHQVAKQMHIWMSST
Protocol: as §1

CDK20/CycT1 = molecular target: T8, CDK20/CycT1 (Homo sapiens, UniProt Q8IZL9)
T8 construct: purchased ProQinase (Freiburg, Germany)
T8 sequence (Q8IZL9 whole entry): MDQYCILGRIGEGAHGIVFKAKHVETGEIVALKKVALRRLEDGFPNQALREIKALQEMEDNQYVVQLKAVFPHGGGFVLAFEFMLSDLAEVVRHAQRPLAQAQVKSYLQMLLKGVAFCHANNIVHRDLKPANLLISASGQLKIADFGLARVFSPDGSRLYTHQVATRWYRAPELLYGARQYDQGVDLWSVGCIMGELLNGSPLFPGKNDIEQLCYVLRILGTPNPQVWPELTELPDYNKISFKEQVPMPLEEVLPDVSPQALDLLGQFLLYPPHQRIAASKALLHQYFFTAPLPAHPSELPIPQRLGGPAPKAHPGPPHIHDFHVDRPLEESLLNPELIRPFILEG
T8 sequence (O60563 whole entry partner): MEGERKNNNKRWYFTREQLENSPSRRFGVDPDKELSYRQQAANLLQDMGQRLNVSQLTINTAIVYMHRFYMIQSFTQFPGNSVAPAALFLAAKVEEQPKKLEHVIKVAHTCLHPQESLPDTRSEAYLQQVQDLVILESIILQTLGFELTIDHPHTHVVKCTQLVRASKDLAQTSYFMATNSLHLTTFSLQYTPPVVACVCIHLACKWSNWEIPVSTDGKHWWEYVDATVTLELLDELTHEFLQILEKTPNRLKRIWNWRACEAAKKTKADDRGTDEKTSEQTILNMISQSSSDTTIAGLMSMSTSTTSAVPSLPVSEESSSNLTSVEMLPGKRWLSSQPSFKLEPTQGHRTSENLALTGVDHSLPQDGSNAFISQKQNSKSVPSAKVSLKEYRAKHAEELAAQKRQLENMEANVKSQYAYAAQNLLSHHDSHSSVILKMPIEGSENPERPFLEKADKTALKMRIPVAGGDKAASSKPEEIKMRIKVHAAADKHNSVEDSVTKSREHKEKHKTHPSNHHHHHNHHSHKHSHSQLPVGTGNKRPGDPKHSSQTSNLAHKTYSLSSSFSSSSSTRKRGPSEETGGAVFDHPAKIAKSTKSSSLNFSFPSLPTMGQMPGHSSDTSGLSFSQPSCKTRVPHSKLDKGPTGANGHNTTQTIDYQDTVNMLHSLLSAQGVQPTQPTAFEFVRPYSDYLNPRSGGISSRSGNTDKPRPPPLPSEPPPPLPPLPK
Protocol: as §1

TYRO3 = molecular target: T9, TYRO3 (Homo sapiens, UniProt Q06418)
T9 construct: purchased ProQinase (Freiburg, Germany)
T9 sequence (Q06418 41-890): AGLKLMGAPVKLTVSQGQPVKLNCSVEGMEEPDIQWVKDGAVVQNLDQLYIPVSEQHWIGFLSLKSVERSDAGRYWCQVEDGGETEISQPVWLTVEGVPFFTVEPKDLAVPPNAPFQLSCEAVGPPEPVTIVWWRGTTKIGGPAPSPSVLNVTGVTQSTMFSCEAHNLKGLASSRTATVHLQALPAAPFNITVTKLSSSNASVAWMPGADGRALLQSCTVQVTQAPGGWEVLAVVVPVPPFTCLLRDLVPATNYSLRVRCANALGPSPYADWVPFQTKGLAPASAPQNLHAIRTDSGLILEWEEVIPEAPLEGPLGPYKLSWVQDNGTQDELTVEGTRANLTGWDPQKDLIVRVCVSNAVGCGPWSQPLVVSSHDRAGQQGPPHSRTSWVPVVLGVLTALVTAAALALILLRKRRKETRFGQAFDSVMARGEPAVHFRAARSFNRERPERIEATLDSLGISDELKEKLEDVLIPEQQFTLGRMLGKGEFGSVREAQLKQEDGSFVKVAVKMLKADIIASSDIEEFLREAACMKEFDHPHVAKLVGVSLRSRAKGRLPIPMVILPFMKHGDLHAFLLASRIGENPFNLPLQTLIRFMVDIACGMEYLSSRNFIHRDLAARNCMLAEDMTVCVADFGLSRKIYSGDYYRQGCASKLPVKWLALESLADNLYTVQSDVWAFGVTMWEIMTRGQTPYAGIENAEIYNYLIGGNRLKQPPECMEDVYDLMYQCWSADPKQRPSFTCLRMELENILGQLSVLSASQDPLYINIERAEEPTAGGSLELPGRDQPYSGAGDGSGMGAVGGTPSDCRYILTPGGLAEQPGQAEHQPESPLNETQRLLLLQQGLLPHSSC
Protocol: as §1

T1 sequence (Q13164 whole entry): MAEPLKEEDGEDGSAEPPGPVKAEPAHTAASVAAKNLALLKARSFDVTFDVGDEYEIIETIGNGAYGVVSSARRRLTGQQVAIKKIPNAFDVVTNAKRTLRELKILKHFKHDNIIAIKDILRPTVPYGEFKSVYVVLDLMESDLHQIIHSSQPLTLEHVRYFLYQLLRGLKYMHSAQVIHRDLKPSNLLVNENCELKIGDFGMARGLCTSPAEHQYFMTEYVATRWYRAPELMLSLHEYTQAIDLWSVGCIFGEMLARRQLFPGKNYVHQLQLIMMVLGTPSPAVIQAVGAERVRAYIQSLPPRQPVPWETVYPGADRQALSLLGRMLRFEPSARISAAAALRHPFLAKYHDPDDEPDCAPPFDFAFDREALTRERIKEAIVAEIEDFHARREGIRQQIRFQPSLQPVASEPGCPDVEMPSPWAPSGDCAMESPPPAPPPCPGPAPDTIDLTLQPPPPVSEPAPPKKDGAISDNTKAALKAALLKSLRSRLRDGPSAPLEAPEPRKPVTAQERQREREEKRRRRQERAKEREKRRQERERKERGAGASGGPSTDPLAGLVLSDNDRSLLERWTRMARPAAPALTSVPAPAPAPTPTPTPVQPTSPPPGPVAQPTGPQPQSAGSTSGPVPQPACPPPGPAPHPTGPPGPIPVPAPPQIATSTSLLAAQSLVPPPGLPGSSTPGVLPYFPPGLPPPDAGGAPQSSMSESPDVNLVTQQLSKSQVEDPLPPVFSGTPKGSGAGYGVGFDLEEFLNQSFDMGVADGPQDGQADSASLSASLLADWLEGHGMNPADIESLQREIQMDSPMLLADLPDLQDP

| SMILES | Residual activity (ERK5; 1.0E-05 M) | Residual activity (ERK5; 1.0E-06 M) | Residual activity (TSSK1; 1.0E-05 M) | Residual activity (TSSK1; 1.0E-06 M) | Residual activity (CDC7/DBF4; 1.0E-05 M) | Residual activity (CDC7/DBF4; 1.0E-06 M) | Residual activity (TGFBR1; 1.0E-05 M) | Residual activity (TGFBR1; 1.0E-06 M) | Residual activity (FAK; 1.0E-05 M) | Residual activity (FAK; 1.0E-06 M) | Residual activity (DCAMKL2; 1.0E-05 M) | Residual activity (DCAMKL2; 1.0E-06 M) | Residual activity (NEK6; 1.0E-05 M) | Residual activity (NEK6; 1.0E-06 M) | Residual activity (CDK20/CycT1; 1.0E-05 M) | Residual activity (CDK20/CycT1; 1.0E-06 M) | Residual activity (TYRO3; 1.0E-05 M) | Residual activity (TYRO3; 1.0E-06 M) |
| --- | --- | --- | --- | --- | --- | --- | --- | --- | --- | --- | --- | --- | --- | --- | --- | --- | --- | --- |
| O=C(Cc1ccccc1)Nc1ccc(F)c(Nc2ccc3c(c2)CCCCC3=O)c1 [Compound 100] | 103 % of control | 80 % of control | 105 % of control | 112 % of control | 93 % of control | 98 % of control | 88 % of control | 95 % of control | 88 % of control | 116 % of control | 89 % of control | 101 % of control | 87 % of control | 95 % of control | 92 % of control | 98 % of control | 77 % of control | 96 % of control |
| O=C(Nc1ccc(F)c(Nc2ccc3c(c2)CCCCC3=O)c1)c1cccc(F)c1 [Compound 109] | 93 % of control | 90 % of control | 102 % of control | 102 % of control | 91 % of control | 96 % of control | 91 % of control | 88 % of control | 88 % of control | 104 % of control | 103 % of control | 100 % of control | 92 % of control | 96 % of control | 101 % of control | 96 % of control | 92 % of control | 104 % of control |
